According to ChEMBL document CHEMBL6120950, “Deep-Learning-Driven Discovery of SN3-1, a Potent NLRP3 Inhibitor with Therapeutic Potential for Inflammatory Diseases” (J Med Chem, 2024):
pIC50: −log10 of the molar value. One block for each compound: values may come before it. Activity calls are given as the source filed them. No cut-off for these calls is given here.

What was measured:
[1] = molecular target: NACHT, LRR and PYD domains-containing protein 3 (Homo sapiens, UniProt Q96P20); experiment: Inhibition of NLRP3 inflammasome pathway in human THP-1 cells assessed as LPS-stimulated IL-1beta release pretreated with LPS for 3 hrs followed by compound addition for 30 mins prior to MSU addition and measured after 30 mins by ELISA; type: cell-based
NACHT, LRR and PYD domains-containing protein 3, sequence (Q96P20 whole entry, the tested form may be a part): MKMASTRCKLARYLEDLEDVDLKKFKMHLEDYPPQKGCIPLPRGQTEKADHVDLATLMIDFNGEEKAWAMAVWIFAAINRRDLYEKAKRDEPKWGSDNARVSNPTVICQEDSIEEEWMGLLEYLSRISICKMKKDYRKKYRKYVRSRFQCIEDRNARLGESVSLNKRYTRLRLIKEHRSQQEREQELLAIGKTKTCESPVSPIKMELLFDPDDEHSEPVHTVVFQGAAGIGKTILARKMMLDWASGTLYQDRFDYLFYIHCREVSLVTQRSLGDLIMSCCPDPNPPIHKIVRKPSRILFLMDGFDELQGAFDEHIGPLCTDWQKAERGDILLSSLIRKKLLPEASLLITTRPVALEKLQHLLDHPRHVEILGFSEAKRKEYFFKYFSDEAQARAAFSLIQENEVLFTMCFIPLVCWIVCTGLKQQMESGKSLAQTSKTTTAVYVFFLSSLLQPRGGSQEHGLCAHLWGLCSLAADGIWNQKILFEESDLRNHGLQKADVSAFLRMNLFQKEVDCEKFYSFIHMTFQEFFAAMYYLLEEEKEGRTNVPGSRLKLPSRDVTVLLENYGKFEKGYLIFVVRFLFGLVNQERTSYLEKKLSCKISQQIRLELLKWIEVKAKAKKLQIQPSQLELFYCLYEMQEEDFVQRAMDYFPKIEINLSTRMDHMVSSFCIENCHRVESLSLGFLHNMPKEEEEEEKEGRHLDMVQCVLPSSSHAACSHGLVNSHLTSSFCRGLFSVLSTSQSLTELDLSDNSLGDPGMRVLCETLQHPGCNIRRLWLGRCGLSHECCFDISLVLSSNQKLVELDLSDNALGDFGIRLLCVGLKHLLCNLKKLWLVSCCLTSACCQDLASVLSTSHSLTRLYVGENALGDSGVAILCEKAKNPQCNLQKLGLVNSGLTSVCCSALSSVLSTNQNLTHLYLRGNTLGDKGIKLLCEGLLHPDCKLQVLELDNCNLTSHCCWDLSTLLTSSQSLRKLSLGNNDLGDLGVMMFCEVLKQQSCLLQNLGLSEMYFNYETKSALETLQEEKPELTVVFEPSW

[2] = Glutathione reactivity in PBS buffer; type: physicochemical
HEK-293T = experiment: Cytotoxicity against human HEK293T cells assessed as effect on cell viability at 50 uM incubated for 24 hrs by CCK-8 assay; type: toxicity, cell-based
[3] = Microsomal stability in human liver microsome assessed half life; type: ADME; settings: liver microsomes
[4] = Tmax in ICR mouse at 10 mg/kg, po measured upto 24 hrs by LC-MS/MS analysis; type: ADME, organism-based; settings: in vivo
[5] = Chronic toxicity in ICR mouse assessed as change in creatinine level at 300 mg/kg, po administered every day for 12 days; type: organism-based; settings: in vivo, 288 h, time 12 day
[6] = Toxicity in C57BL/6 mouse assessed as total distance travelled at 30 mg/kg, po measured up to 7 days by open field test; type: organism-based; settings: in vivo, 168 h, time < 7 day
BMDM = experiment: Induction ROS production in human BMDM cells by MitoSOX probe based analysis; type: functional, cell-based
[7] = MRT (0 to t) in ICR mouse at 1 mg/kg, iv measured upto 24 hrs by LC-MS/MS analysis; type: ADME, organism-based; settings: in vivo
[8] = Chronic toxicity in ICR mouse assessed as change in nitrogen level at 300 mg/kg, po administered every day for 12 days; type: organism-based; settings: in vivo, 288 h, time 12 day
[9] = Oral bioavailability in ICR mouse at 10 mg/kg measured upto 24 hrs by LC-MS/MS analysis; type: ADME, organism-based; settings: in vivo
[10] = Acute toxicity in C57BL/6J mouse assessed as mortality at 2000 mg/kg, po measured for 1 week; type: organism-based; settings: in vivo, 168 h, time 1 weeks
[11] = AUC (0 to t) in ICR mouse at 10 mg/kg, po measured upto 24 hrs by LC-MS/MS analysis; type: ADME, organism-based; settings: in vivo
[12] = Chronic toxicity in ICR mouse assessed as change in AST level at 300 mg/kg, po administered every day for 12 days; type: organism-based; settings: in vivo, 288 h, time 12 day
[13] = Half life in ICR mouse at 1 mg/kg, iv measured upto 24 hrs by LC-MS/MS analysis; type: ADME, organism-based; settings: in vivo
[14] = Chronic toxicity in ICR mouse assessed as change in ALT level at 300 mg/kg, po administered every day for 12 days; type: organism-based; settings: in vivo, 288 h, time 12 day
[15] = MRT (0 to t) in ICR mouse at 10 mg/kg, po measured upto 24 hrs by LC-MS/MS analysis; type: ADME, organism-based; settings: in vivo
[16] = Chronic toxicity in ICR mouse assessed as change in uric acid level at 300 mg/kg, po administered every day for 12 days; type: organism-based; settings: in vivo, 288 h, time 12 day
[17] = AUC (0 to t) in ICR mouse at 1 mg/kg, iv measured upto 24 hrs by LC-MS/MS analysis; type: ADME, organism-based; settings: in vivo
[18] = Acute toxicity in po dosed C57BL/6J mouse assessed as lethal dose at measured for 1 week; type: organism-based; settings: in vivo, time 1 weeks
Mus musculus [19] = experiment: Anti-inflammatory activity in MSU-induced acute gouty arthritis ICR mouse model assessed as reduction in ankle swelling at 30 mg/kg, po administered for 7 days; type: functional, organism-based; settings: time 7.0 day
[20] = Acute toxicity in mouse assessed as mortality at 2000 mg/kg, po measured on day 1; type: organism-based; settings: in vivo, 24 h, time 1 day
[21] = Cmax in ICR mouse at 10 mg/kg, po measured upto 24 hrs by LC-MS/MS analysis; type: ADME, organism-based; settings: in vivo
[22] = Half life in ICR mouse at 10 mg/kg, po measured upto 24 hrs by LC-MS/MS analysis; type: ADME, organism-based; settings: in vivo
[23] = Chronic toxicity in mouse assessed as reduction in body weight at 300 mg/kg, po administered every day for 12 days; type: organism-based; settings: in vivo, 288 h, time 12 day
[24] = Tmax in ICR mouse at 1 mg/kg, iv measured upto 24 hrs by LC-MS/MS analysis; type: ADME, organism-based; settings: in vivo
Mus musculus [25] = experiment: Antialzheimer activity against scopolamine-induced cognitive impairment in C57BL/6 mouse assessed as increase in number of platform crossing at 30 mg/kg, po measured upto 14 days by morris water maze test; type: functional, organism-based; settings: time <= 14.0 day
[26] = Cmax in ICR mouse at 1 mg/kg, iv measured upto 24 hrs by LC-MS/MS analysis; type: ADME, organism-based; settings: in vivo
[27] = Clearance in ICR mouse at 1 mg/kg, iv measured upto 24 hrs by LC-MS/MS analysis; type: ADME, organism-based; settings: in vivo
[28] = Volume of distribution at steady state in ICR mouse at 1 mg/kg, iv measured upto 24 hrs by LC-MS/MS analysis; type: ADME, organism-based; settings: in vivo, read-out: Vdss

Structure (SMILES): C=C(C)c1csc(SCC(=O)Nc2c(-c3cccc(Cl)c3Cl)ccc3c2CCC3)c1
pIC50 [1]: < 6.00

Structure (SMILES): CC(C)(O)c1coc(S(=O)(=O)NC(=O)NC2c3ccccc3-c3ccccc32)c1
pIC50 [1]: < 6.00

Structure (SMILES): CC(C)(O)c1coc(S(=O)(=O)NC(=O)NC2CCCc3ccccc32)c1 (stereo not given)
pIC50 [1]: < 6.00

Structure (SMILES): CC(C)(O)c1coc(S(=O)(=O)NC(=O)Nn2ccc3cccnc32)c1
pIC50 [1]: < 6.00

Structure (SMILES): CC(C)(O)c1coc(S(=O)(=O)NC(=O)Nc2c(-c3ccc4ccccc4c3)ccc3c2CCC3)c1
Drug metabolism [2]: metabolite_detected | Activity (HEK-293T): Non-toxic

Structure (SMILES): CC(C)(O)c1csc(S(=O)(=O)NC(=O)Nc2c(-c3cccc(Cl)c3Cl)ccc3c2CCC3)c1
half-life [3]: 1.57 h | Tmax [4]: 0.5 h | Activity [5]: Non-toxic | Activity [6]: Non-toxic | Activity (BMDM): Active | MRT last at 24 h [7]: 1.75 h | Activity [8]: Non-toxic | bioavailability [9]: 36.8% | Activity [10]: Non-toxic | AUC(0-t) at 24 h [11]: 9710 ng·h/mL | Activity [12]: Non-toxic | half-life [13]: 2.57 h | Activity [14]: Non-toxic | MRT last at 24 h [15]: 1.73 h | Activity [16]: Non-toxic | AUC(0-t) at 24 h [17]: 2610 ng·h/mL | LD50 at 168 h [18]: 2000 mg/kg | Activity (Mus musculus [19]): Active | Activity [20]: Toxic | Cmax [21]: 7120 ng/mL | half-life [22]: 1.86 h | Activity [23]: Non-toxic | Tmax [24]: 4.98 min | Activity (Mus musculus [25]): Active | Cmax [26]: 3920 ng/mL | clearance [27]: 6.1 mL/min/kg | Vd [28]: 0.638 L/kg

Structure (SMILES): CC(C)(O)c1coc(S(=O)(=O)NC(=O)Nc2c3c(cc(Br)c2OC2CCCCC2)CCC3)c1
pIC50 [1]: < 6.00

The next lines start with results.

Drug metabolism [2]: metabolite_detected
Structure (SMILES): CC(C)(O)c1coc(S(=O)(=O)NC(=O)Nc2c(-c3cccc(Cl)c3Cl)ccc3c2CCC3)c1
Activity (HEK-293T): Non-toxic

pIC50 [1]: < 6.00
Structure (SMILES): COC(=O)c1csc(CNC(=O)Nc2c(-c3cccc(Cl)c3Cl)ccc3c2CCC3)c1

pIC50 [1]: < 6.00
Structure (SMILES): CC(=O)c1csc(NC(=O)Nc2c(-c3cccc(Cl)c3Cl)ccc3c2CCC3)c1

pIC50 [1]: < 6.00
Structure (SMILES): CC(C)(O)c1coc(S(=O)(=O)NC(=O)Nc2c(-c3ccc(N4CCOCC4)cc3)ccc3c2CCC3)c1

pIC50 [1]: < 6.00
Structure (SMILES): CC(C)(O)c1coc(S(=O)(=O)NC(=O)Nc2cccc3c2CCC3)c1
